“Also recorded” adds a separate entry of the source.
Experiments:
BoNTA [1] = target: T1, BoNTA (Clostridium botulinum, UniProt P0DPI1)
Target sequence in this assay (P0DPI1 whole entry, looked up): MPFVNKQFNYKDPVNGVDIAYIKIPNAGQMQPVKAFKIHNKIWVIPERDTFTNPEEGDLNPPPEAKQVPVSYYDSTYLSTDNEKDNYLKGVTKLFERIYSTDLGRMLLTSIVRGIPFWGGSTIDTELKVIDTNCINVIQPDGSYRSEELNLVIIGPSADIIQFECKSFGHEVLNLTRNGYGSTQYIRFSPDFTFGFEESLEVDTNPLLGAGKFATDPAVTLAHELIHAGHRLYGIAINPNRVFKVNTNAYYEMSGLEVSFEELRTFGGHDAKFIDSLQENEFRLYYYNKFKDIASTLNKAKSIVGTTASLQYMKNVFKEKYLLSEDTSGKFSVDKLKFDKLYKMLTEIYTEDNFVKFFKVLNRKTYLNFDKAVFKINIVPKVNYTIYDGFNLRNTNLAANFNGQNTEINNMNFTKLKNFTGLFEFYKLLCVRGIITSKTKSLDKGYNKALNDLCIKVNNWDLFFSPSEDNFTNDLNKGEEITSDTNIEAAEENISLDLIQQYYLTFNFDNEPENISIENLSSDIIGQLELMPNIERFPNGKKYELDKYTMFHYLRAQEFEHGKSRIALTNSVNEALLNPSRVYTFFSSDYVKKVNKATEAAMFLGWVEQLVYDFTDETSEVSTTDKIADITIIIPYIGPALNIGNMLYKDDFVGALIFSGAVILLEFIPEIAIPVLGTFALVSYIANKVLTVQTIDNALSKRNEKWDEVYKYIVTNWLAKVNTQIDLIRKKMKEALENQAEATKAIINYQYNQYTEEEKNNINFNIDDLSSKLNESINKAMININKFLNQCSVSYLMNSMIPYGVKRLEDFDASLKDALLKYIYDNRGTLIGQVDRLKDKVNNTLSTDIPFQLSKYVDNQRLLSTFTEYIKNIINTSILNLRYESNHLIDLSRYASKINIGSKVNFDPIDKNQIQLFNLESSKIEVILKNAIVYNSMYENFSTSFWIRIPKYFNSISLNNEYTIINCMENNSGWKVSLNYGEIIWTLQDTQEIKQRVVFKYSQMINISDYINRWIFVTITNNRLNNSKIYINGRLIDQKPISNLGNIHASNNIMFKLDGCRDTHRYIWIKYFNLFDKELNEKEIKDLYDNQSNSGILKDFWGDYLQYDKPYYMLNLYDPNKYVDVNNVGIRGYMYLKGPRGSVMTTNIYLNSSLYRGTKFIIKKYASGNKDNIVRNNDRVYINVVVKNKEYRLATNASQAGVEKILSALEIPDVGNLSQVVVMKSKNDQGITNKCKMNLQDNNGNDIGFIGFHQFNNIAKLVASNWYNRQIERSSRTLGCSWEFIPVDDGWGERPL

BoNTA [2] = target: T1, BoNTA; remark: listed apart in the source
Target sequence in this assay (P0DPI1 whole entry, looked up): as above

BoNTA [3] = target: T1, BoNTA; remark: listed apart in the source
Target sequence in this assay (P0DPI1 2-448 limits assumed): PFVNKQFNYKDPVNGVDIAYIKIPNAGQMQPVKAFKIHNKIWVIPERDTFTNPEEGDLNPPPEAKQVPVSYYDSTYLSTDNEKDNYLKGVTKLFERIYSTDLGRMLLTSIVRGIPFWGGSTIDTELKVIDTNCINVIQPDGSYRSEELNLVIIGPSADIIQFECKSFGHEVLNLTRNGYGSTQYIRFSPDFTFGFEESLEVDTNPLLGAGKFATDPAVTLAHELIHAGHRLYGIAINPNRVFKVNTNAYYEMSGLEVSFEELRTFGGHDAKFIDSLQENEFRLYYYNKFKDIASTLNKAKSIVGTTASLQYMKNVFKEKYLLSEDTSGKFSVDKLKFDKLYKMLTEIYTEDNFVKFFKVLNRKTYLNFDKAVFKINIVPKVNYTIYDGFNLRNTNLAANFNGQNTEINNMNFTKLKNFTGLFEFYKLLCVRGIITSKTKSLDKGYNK

For “Ac IIGNLRHMALDMGNEIDTQNRQIDRIMEKADSNKTRIDEAN Nop R A Pya K Nle L NH2 [Substrate S9]”, the “parameters (Km, kcat, Vmax) for the hydrolysis, compared with SNAP 25” value (BoNTA [1]) was “more favorable than for SNAP 25; also recorded: better than those reported for SNAP 25 itself and other substrates reported to date”, the “metabolites formed on cleavage by BoNTA” value (BoNTA [2]) was “only two metabolites formed” and the “BoNT/A concentration that can be quantified” value (BoNTA [3]; pH 7.4) was 0.2 ng/mL.
“Ac-S-N-K-T-R-I-D-E-A-N-Pya-R-A-Nop-K-Nle-L-NH2 [Pya^197Nop^200(187-203)SNAP25]” was tested, and the “cleavage by the toxin BoNT/A” value (BoNTA [3]) was “weakly cleaved”.
For ethylene diamine tetracetate [EDTA], the “effect on fluorescence emitted by degradation of substrate S1 by BoNT/A (enzymatic activity)” value (BoNTA [3]) was “inhibition of the fluorescence”.

From patent US7875436B2 (priority 2004, dated 2011)
